Assay results published in US5229409A, “6-substituted-tetrahydrobenz[cd]indoles” (Eli Lilly and Company, priority 1991, dated 1993).

Key:
rats = test: death of treated rats in the in vivo 5-hydroxyindole/corticosterone experiment; parameters: species or system rat (male albino); settings: 3 mg/kg s.c.
Procedure: (§1) In another experiment certain compounds of the Examples were evaluated to determine ability to affect the 5-hydroxyindoles serotonin and 5-hydroxyindole acetic acid (5HIAA), and serum corticosterone, in vivo. Male albino rats were injected subcutaneously with an aqueous solution of the compound. The pH of the solution was adjusted as necessary to solubilize the compound. A control of the solution without the test compound was similarly injected into a control animal. The rats were decapitated one hour later. Trunk blood was collected and allowed to clot. After centrifugation, serum was stored frozen prior to analysis. The whole brain was removed and frozen on dry ice for storage prior to analysis. The serum corticosterone concentration was measured spectrofluorometrically using the procedure of Solem and Brinck-Johnson, "An Evaluation of a Method for Determination of Free Corticosteroids in Minute Quantities of Mouse Plasma", Scand. J. Clin. Lab. Invest., Suppl. 80, p. 1-14 (1965), incorporated herein by reference. 5-Hydroxyindoleacetic acid (5HIAA) concentration in whole brain was measured by liquid chromatography with electrochemical detection as reported by Fuller and Perry, "Effects of Buspirone and its Metabolite, 1-(2-pyrimidinyl)piperazine, on Brain Monoamines and Their Metabolites in Rats", J. Pharmacol. Exp. Ther., 248, p. 50-56 (1989), incorporated herein by reference.

serum corticosterone = serum corticosterone concentration in vivo in rats; parameters: species or system rat (male albino); settings: 1 hour
Procedure: as §1

5-HT1A receptor = target: T1, 5-HT1A receptor (Rattus norvegicus, UniProt P19327); test: [3H]8-OH-DPAT binding to 5-HT1A sites in hippocampal membranes; parameters: species or system rat (male Sprague-Dawley); settings: [3H]8-OH-DPAT 1.0 nM, pH 7.4, 37° C
T1 construct: the brains were rapidly chilled and dissected to obtain the hippocampi; from tissue; host or cells: hippocampi of male Sprague-Dawley rats (150-250 g), washed membranes
T1 sequence (P19327 1-422): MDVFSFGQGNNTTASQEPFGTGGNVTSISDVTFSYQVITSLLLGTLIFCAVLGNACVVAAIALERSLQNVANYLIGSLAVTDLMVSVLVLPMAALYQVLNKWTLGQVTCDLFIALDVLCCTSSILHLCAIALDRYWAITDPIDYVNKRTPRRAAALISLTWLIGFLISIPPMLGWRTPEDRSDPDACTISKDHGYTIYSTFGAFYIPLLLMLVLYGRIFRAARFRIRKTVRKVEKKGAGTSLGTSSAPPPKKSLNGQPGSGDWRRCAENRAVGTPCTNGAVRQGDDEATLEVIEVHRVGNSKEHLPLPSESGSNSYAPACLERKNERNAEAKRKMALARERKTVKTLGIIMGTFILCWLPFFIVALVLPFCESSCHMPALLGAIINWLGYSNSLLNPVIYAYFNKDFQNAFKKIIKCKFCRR
Procedure: The affinities of the compounds at the central […] described by Taylor, et al., (J. Pharmacol. Exp. Ther. 236:118-125, 1986). Membranes for the binding assay were prepared from male Sprague-Dawley rats (150-250 g). The animals were killed by decapitation, and the brains were rapidly chilled and dissected to obtain the hippocampi. The hippocampi were either prepared that day or stored frozen (-70° C.) until the day of preparation. Membranes were prepared by homogenizing the tissue in 40 volumes of ice-cold Tris-HCl buffer (50 mM, pH 7.4 at 22° C.) using a Techmar Tissumizer (setting 65 for 15 sec), and the homogenate was centrifuged at 39800 xg for 10 min. The resulting pellet then resuspended in the same buffer, and the centrifugation and resuspension process was repeated three additional times to wash the membranes. Between the second and third washes the resuspended membranes were incubated for 10 min at 37° C. to facilitate the removal of endogenous ligands. The final pellet was resuspended in 67 mM Tris-HCl, pH 7.4, to a concentration of 2 mg of tissue original wet weight/200 μl. This homogenate was stored frozen (-70° C.) until the day of the binding assay. […] The assay tubes were incubated for 10 min at 37° C, and the contents were then rapidly filtered through GF/B filters (pretreated with 0.5% polyethylenimine), followed by four one-mL washes with ice cold buffer. The radioactivity trapped by the filters was quantitated by liquid scintillation spectrometry, and specific [^3 H]8-OH-DPAT binding to the 5-HT1A sites was defined as the difference between [^3 H]8-OH-DPAT bound in the presence and absence of 10 μM 5-HT.
The affinity of the particular compound at the 5-HT1A receptor is expressed as IC50 value, i.e., the concentration required to inhibit 50% of the binding. The IC50 values were determined from 12-point competition curves using nonlinear regression (SYSTAT, SYSTAT, INC., Evanston, Ill.).

serotonin = test: whole brain serotonin concentration in vivo in rats; parameters: species or system rat (male albino); settings: 5 hrs before sacrifice
[1] = 0.0003 mg/kg s.c., series 0.0003-0.03 mg/kg
[2] = 0.003 mg/kg s.c., series 0.0003-0.03 mg/kg
[3] = 0.03 mg/kg s.c., series 0.0003-0.03 mg/kg
[4] = 0.03 mg/kg s.c., series 0.03-3 mg/kg
[5] = 0.3 mg/kg s.c., series 0.03-3 mg/kg
[6] = 3 mg/kg s.c., series 0.03-3 mg/kg

Row | Structure (SMILES) | death of treated rats (rats) | Serum Corticosterone (serum corticosterone; [1]) [microg./100 ml] | Serum Corticosterone (serum corticosterone; [2]) [microg./100 ml] | Serum Corticosterone (serum corticosterone; [3]) [microg./100 ml] | Serum Corticosterone (serum corticosterone; [4]) [microg./100 ml] | Serum Corticosterone (serum corticosterone; [5]) [microg./100 ml] | IC50 (5-HT1A receptor) [nM] | Serum Corticosterone (serum corticosterone; [6]) [microg./100 ml] | Serotonin (serotonin; 0.1 mg/kg orally) [nmol/g] | Serotonin (serotonin; 0.3 mg/kg orally) [nmol/g] | Serotonin (serotonin; 1 mg/kg orally) [nmol/g] | Serotonin (serotonin; 3 mg/kg orally) [nmol/g]
1 | CCCN(CCC)[C@H]1Cc2c[nH]c3ccc(C(C)=O)c(c23)C1 [Example 7, (4R)-(+)-6-acetyl-4-(di-n-propylamino)-1,3,4,5-tetrahydrobenz[cd]indole] | dead within one hour | 4.1 ± 0.6 | 3.6 ± 0.1 | 21.8 ± 2.1 | 41.8 ± 1.7 | 41.5 ± 5.3 | 0.22 |  |  |  |  | 
2 | CCCN(CCC)[C@@H]1Cc2c[nH]c3ccc(C(C)=O)c(c23)C1 [Example 8, (4S)-(-)-6-acetyl-4-(di-n-propylamino)-1,3,4,5-tetrahydrobenz[cd]indole] |  | 3.4 ± 0.2 | 3.8 ± 0.2 | 40.3 ± 1.8 | 47.0 ± 2.4 | 47.3 ± 2.3 | 0.12 | 45.4 ± 1.3 | 2.77 ± 0.07 | 2.47 ± 0.07 | 2.86 ± 0.07 | 2.68 ± 0.11
3 | CCCN(CCC)C1Cc2c[nH]c3ccc(C(C)=O)c(c23)C1 (racemic) [Example 2, (±)-6-Acetyl-4-(di-n-propylamino)-1,3,4,5-tetrahydrobenz[cd]indole] |  | 3.8 ± 0.5 | 3.6 ± 0.1 | 36.7 ± 1.2 | 33.4 ± 3.7 | 39.1 ± 1.1 | 0.2 | 13.8 ± 0.6 |  |  |  | 
4 | CCCN(CCC)[C@H]1Cc2c[nH]c3ccc(C(=O)C(C)C)c(c23)C1 [Example 9, (4R)-(+)-6-(2-methylpropanoyl)-4-(di-n-propylamino)-1,3,4,5-tetrahydrobenz[cd]indole] |  | 4.1 ± 0.5 | 6.0 ± 1.3 | 9.1 ± 1.2 | 7.7 ± 1.8 | 40.8 ± 2.0 | 0.16 | 30.8 ± 4.5 |  |  |  | 
